Reference: publication PMC8155467 (ACS Central Science, 2021)

Assays:
[1] = biological target: AKR1B10_C299A mutant (Homo sapiens, UniProt O60218, C299A); experiment: AKR1B10 Inhibition Assay; format: biochemical; conditions: VC59 0.5-50 µM, 1 h; tolrestat, isolithocholic acid 500 nM, 15 min
[2] = biological target: AKR1B10 (Homo sapiens, UniProt O60218); conditions: cited from earlier work
Chain of AKR1B10 (O60218 whole entry): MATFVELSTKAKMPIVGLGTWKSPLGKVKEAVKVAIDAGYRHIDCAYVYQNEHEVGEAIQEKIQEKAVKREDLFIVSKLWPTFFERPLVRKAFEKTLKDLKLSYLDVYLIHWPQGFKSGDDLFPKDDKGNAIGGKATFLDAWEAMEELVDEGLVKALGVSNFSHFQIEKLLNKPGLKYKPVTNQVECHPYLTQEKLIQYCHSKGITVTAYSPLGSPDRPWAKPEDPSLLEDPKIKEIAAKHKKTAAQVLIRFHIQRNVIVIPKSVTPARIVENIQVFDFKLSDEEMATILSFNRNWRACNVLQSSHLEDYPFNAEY

Chain of AKR1B10_C299A mutant (O60218 whole entry C299A): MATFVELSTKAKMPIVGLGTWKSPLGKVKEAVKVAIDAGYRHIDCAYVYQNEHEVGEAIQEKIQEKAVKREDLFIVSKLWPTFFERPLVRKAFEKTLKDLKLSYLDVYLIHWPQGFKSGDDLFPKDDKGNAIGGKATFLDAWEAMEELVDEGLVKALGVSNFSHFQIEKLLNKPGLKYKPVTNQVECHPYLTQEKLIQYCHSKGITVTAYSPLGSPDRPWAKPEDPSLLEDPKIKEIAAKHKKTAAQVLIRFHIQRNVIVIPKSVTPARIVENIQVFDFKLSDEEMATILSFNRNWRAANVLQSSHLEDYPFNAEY

For `C[C@H](CCC(=O)O)[C@H]1CC[C@H]2[C@@H]3CC[C@@H]4C[C@@H](O)CC[C@]4(C)[C@H]3CC[C@]12C` [isolithocholic acid], the “inhibition of AKR1B10_C299A mutant reductase activity (NADPH absorbance assay)” value [1] was “maintained sensitivity”.
For `CCCCC[C@H](O)/C=C/[C@H]1C=CC(=O)[C@@H]1CCCCCCC(=O)O` [prostaglandin A1], the “inhibition of AKR1B10 activity by natural electrophilic compounds engaging C299” value [2] is given as “inhibit AKR1B10 activity”.
With `COc1ccc2c(C(=S)N(C)CC(=O)O)cccc2c1C(F)(F)F` [tolrestat] the “inhibition of AKR1B10_C299A mutant reductase activity (NADPH absorbance assay)” value [1] was “maintained sensitivity”.
